# Assays:
# T cells = assay: Chemotaxis assay: T cell migration toward SDF-1α; format: cell-based; conditions: concentration range 10-1000 ng/ml; SDF-1α 250 ng/ml; 3 hr
# Description: The migration of ^51-[Cr]-labeled T cells was examined in […] Transwell chemotaxis apparatus (6.5-mm diameter; Corning, N.Y.), consisting of two compartments separated by polycarbonate filters (5 μm pore size) pretreated (1 hr, 37° C.) with FN (25 μg/ml). ^51-[Cr]-labeled T cells (2×10^5 in 100 μl of RPMI containing 0.1% BSA and antibiotics), which were pre-incubated with the indicated concentrations of peptides (30 min, 37° C.), were added to the upper chambers. The bottom chambers contained 0.6 ml of the same media, with or without human Stromal cell-Derived Factor-1α (SDF-1α; 250 ng/ml). After incubation at 37° C. for 3 hr (7.5% CO2-humidified atmosphere), cells that had transmigrated into the lower wells were collected, centrifuged, and lysed (in 100 μl of distilled water containing 1 M NaOH and 0.1% Triton X-100), and the radioactivity in the resulting supernatants was determined with a γ-counter. The percentage (±SD) of cell migration was calculated as the radioactivity counts in the lysates of the lower chambers (representative of the migrating cells) divided by the total counts (representative of 2×10^5 cells).
# Jurkat and THP-1 cells = assay: TNFα secretion by PMA/PHA induced Jurkat and THP-1 cells; format: cell-based, human; conditions: peptide 1 μg/ml; 48 hours; ELISA
# Description: Jurkat cells human T cell lymphoma line) (2×10^6 cells/ml) cultured in RPMI-1640 supplemented with 10% FCS were activated with PMA (50 ng/ml) and phytohaemagglutinin PHA (4 µg/ml) for 6 hours at 37° C. (7.5% CO2-humidified atmosphere). Thereafter, the cells were washed, plated on 24-well plates (10^6 cells/well in 0.5 ml), and incubated (1 hour at 37° C., 7.5% CO2-humidified atmosphere) with the indicated concentrations of peptides 1-5. Following the incubation, THP-1 cells (human monocytic cell line derived from a patient with acute monocytic leukaemia; 1.25×10^5 cells/0.5 ml/well) were added to the wells. After 48 hours, the supernatants were collected and their TNF[…] content was determined by ELISA using anti TNF[…] mAb (Pharmingen; San Diego, Calif.) according to the manufacturer's instructions.
# [1] = tested on: anti-CD3 antibody induced IFNγ secretion from T cells; assay: IFNγ secretion by anti-CD3 activated T cells; format: cell-based, human; parameters: concentration or dose not given beside the values; conditions: 24 hours; ELISA; FIG. 7B
# Description: (§1) Human T cells were purified and maintained in culture (RPMI containing 10% FCS, 1% Pyruvate, 1% glutamine, 1% antibiotics, 7.5% CO2, humidified atmosphere) for 15 hr before they were transferred to RPMI and activated (2 hr, 37° C.) with the indicated concentrations of the peptides. The cells were then plated (1.5×10^6 cells/0.5 ml/well) in 24 wells plates (non-tissue culture grade) precoated with anti-CD3 mAb in order to stimulate the cells to secrete cytokines. After 24 hours, the supernatants were collected and their cytokine content (TNFα and IFNγ) was determined by ELISA using anti-IFNγ and anti TNFα mAb (Pharmingen; San Diego, Calif.) according to the manufacturer's instructions.
# NF-κB = assay: Nuclear translocation of NF-κB in T cells (Western blot); format: cell-based; conditions: peptide 100 ng/ml for 2 hours, then anti-CD3 mAb 24 hr; human T cells
# From the text: To address the modulatory role of the wound fluid peptides on the signal transduction cascade leading to regulation of T-cell secretion of TNF-α(and IFN-γ, the nuclear translocation of NF-κB was detected by probing nuclear and cytoplasmic T-cell extracts using mAb specific for the p65 subunit of NF-κB. The nuclear protein Lamin B was used as continuatively expressed control protein for the quantification of protein amounts.
# Human T cells. T cells were purified from the peripheral blood of healthy human donors (Blood Bank; Tel-Hashomer, Israel). The whole blood was incubated (20 min, 22° C.) with RosetteSep™ human T-cell enrichment cocktail (StemCell Technologies, Vancouver, BC, Canada). The remaining unsedimented cells were then loaded onto Lymphocyte Separation Medium (ICN Biomedicals; Belgium), isolated by density centrifugation, and washed with PBS. The purified cells (>95% CD3^+ T cells) so obtained were cultured in RPMI containing antibiotics and 10% heat-inactivated FCS. Western blot analysis of T-cell nuclear extracts. Purified T cells (5×10^6) were preincubated with the peptides (100 ng/ml) for 2 hours (37° C. in a 7% CO2, humidified atmosphere). The cells were then replated in 24-well plates pre-coated with anti-CD3 mAb for 24 hr (37° C. in a 7% CO2, humidified atmosphere). T cells were lysed in 10 mM HEPES, 1.5 mM MgCl2, 1 mM dithiothreitol (DTT), 1 mM PMSF, 0.5% Nonidet P-40. The lysates were incubated on ice for 10 min and centrifuged at 2000 rpm for 10 min at 4° C. The supernatants (cytoplasmic extracts) were transferred and the pellet (nuclei) was suspended in buffer containing 30 mM HEPES, 450 mM NaCl, 25% Glycerol, 0.5 mM EDTA, 6 mM DTT, 12 mM MgCl2 1 mM PMSF, 10 μg/ml leupeptin, 10 μg/ml pepstatin, 1% phosphatase inhibitor cocktail, and the suspension was incubated on ice for 30 min. The lysates were cleared by centrifugation (30 min, 14×10^3 rpm, 4° C.), and the resulting supernatants analyzed for protein content. […]
# [2] = tested on: anti-CD3 antibody induced TNFα secretion from T cells; assay: TNFα secretion by anti-CD3 activated T cells; format: cell-based, human; conditions: peptide 100 ng/ml; 24 hours; ELISA; FIG. 7A
# Description: as §1
# [3] = tested on: mice sensitized with oxazolone; format: in vivo, mouse; conditions: FIG. 1; peptides by implanted osmotic pump, 0.2 μg/hour for 7 days; ear measured 24 hours after oxazolone challenge; BALB/c mice
# Description: Groups of 5 female inbred BALB/c mice (The Jackson Laboratory, Bar Harbor, Me.) were sensitized on the shaved abdominal skin with 2% oxazolone (100 μl) dissolved in acetone/olive oil [4:1 (vol/vol)] applied topically. Delayed type hypersensitivity (DTH) was elicited 5 days later by challenging the mice with 0.5% oxazolone in acetone/olive oil (10 μl given topically to each side of the ear). A constant area of the ear was measured immediately before and 24 hours after the challenge using a Mitutoyo engineer's micrometer. The percent inhibition of DTH is calculated as follows:
# % Inhibition=[1-{(treated−negative control)/(positive control−negative control)}]×100.
# The positive control is the DTH reaction to oxazolone elicited in sensitized mice without treatment. The negative control is the background swelling produced by the oxazolone antigen in naïve non-sensitized mice.
# Peptides Nos. 1-5 were given to the mice by mini perfusion pumps (alzet osmotic pump model 2001), which contained the indicated peptide (40 μg; 200 μl). The pumps were implanted under the mouse skin one day before oxazolone sensitization and they released the peptide in a rate of 1 μl per hour (0.2 μg/hour) for 7 days.
# Peptides Nos. 6-10 were given to the mice by subcutaneously injection (1 μg or 10 μg per mouse), every day, starting at one day before oxazolone sensitization and ending at day 5 post DTH initiation.
# BALB/C mice = assay: Con A-induced hepatic injury (acute hepatitis model); format: in vivo; conditions: 50 μg/mouse intraperitoneally, 2 or 3 injections before ConA, especially after 3 treatments; FIG. 10B
# Description: Con A (13 mg/kg) was administered i.v. to BALB/c mice 18 hours before analysis (Bonder, C. S. et al. 2004. J. Immunol. 172: 45-53). Mice were intraperitoneally injected with the peptides of the invention 48 and 2 hours before ConA injection.
# Blood analysis: 18 hours after Con A injection, blood was obtained by cardiac puncture for detection of serum alanine aminotransferase (ALT) and aspartate aminotransferase (AST). The presence of these two enzymes in serum is used as an index of hepatocellular injury. The detection of ALT and AST was performed by a commercial kit for ALT and AST (Bayer Diagnostics, Tarry town, NY, USA) using an automated Monarch Monoanalyzer 2000 (Allied, Lexington, Mass.).
sequence,measurement,setting,value
"LSALEEYTKKLNTQ [peptide No. 2, residues 254-267 of Apo A-I; identified in wound fluids, then synthesized]",inhibition of T cell transmigration toward SDF-1α,T cells,did not show a significant inhibition
same,inhibition of TNFα secretion by Jurkat and THP-1 cells compared to PMA/PHA alone,Jurkat and THP-1 cells,10%
same,inhibition of anti-CD3 antibody induced IFNγ secretion from T cells,[1],~30%
same,NF-κB translocation to the nucleus,NF-κB,significant down-regulation
same,inhibition of anti-CD3 antibody induced TNFα secretion from T cells,[2],40%
same,inhibition of DTH response,[3],hardly inhibited
same,resistance to ConA induced hepatitis,BALB/C mice,marked resistance

# From US20080311103A1, “Anti-Inflammatory Peptides and Methods of Use Thereof” (YEDA RESEARCH AND DEVELOPMENT CO. LTD. at THE WEIZMANN …, priority 2004, published 2008)
